The target in one data set is CDK1/cyclin B. The data set can be described thus: CDK1/cyclin B kinase assay (histone H1, 15 μM ATP). Type of data set: biochemical, starfish (Marthasterias glacialis). As to conditions: 15 μM ATP, Table 1. How it is done: (§1) Blank values were subtracted and activities calculated as pmoles of phosphate incorporated for a 10 min. incubation. […] Controls were performed with appropriate dilutions of dimethylsulfoxide. In a few cases phosphorylation of the substrate was assessed by autoradiography after SDS-PAGE.
CDK1/cyclin B was extracted in homogenisation buffer from M phase starfish (Marthasterias glacialis) oocytes and purified by affinity chromatography on p9^CKShs1-sepharose beads, from which it was eluted by free p9^CKShs1. […] ATP (3,000 Ci/mmol; 1 mCi/ml) in a final volume of 30 μl. After 10 min. incubation at 30° C., 25 μl aliquots of supernatant were spotted onto P81 phosphocellulose papers and treated as described above.
(§2) Kinases were assayed as above described in the presence of increasing concentrations of aloisines.

Another data set concerns the target GSK-3α/β. The data set can be described thus: GSK-3 kinase assay (GS-1 peptide, 15 μM ATP). Type of data set: biochemical, porcine. As to conditions: read-out: IC50 GSK-3. How it is done:
as §1
GSK-3α/β was either purified from porcine brain or expressed in and purified from insect Sf9 cells. […] ATP (3,000 Ci/mmol; 1 mCi/ml) in a final volume of 30 μl. After 30 min. incubation at 30° C., 25 μl aliquots of supernatant were spotted onto 2.5×3 cm pieces of Whatman P81 phosphocellulose paper, and, 20 sec. later, the filters were washed five times (for at least 5 min. each time) in a solution of 10 ml phosphoric acid/liter of water. The wet filters were counted in the presence of 1 ml ACS (Amersham) scintillation fluid.
as §2

Another data set deals with CDK5/p25 (Homo sapiens, UniProt Q00535). Description: CDK5/p25 kinase assay (histone H1, 15 μM ATP). Type of data set: biochemical, mammalian. As to conditions: Table 1. The method, then: as §1
CDK5/p25 was reconstituted by mixing equal amounts of recombinant mammalian CDK5 and p25 expressed in E. coli as GST (Glutathione-S-transferase) fusion proteins and purified by affinity chromatography on glutathione-agarose (p25 is a truncated version of p35, the 35 kDa CDK5 activator). Its activity was assayed in buffer C as described for CDK1/cyclin B.
as §2

The record followed here is US8106050B2, “Derivatives of pyrrolo-pyrazines having a kinase inhibitory activity and their biological applications” (Centre National de la Recherche Scientifique (C.N.R.S.), priority 2002, dated 2012).

Counter-ions that a name gives are not always drawn. Like-named read-outs stand apart in the source and are kept apart here.

CDK5/p25, sequence (Q00535 whole entry, species assumed, the tested form may be a part): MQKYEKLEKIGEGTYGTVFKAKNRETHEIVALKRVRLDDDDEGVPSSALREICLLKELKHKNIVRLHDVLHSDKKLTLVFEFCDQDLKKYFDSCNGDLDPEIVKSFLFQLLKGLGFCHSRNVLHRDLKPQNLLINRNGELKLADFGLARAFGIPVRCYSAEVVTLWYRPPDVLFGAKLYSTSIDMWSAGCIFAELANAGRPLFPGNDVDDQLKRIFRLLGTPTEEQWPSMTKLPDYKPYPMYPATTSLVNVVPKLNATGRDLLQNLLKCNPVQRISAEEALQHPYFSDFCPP
CDK5/p25, sequence (Q15078 99-307 partner limits assumed, species assumed): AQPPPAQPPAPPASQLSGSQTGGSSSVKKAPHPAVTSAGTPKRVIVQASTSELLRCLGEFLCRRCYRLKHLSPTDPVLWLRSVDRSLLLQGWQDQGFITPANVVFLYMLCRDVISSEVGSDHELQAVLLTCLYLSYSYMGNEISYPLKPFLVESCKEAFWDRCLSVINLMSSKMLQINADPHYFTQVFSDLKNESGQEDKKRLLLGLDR

Usually IC50 stands for the concentration needed to halve the response being measured. For orientation: melting point means the temperature of the solid-liquid transition. For `Br.CCCc1c(-c2ccc(O)cc2)[nH]c2nccnc12` [33 (RP132), 6-(4-Hydroxyphenyl)-7-propyl[5H]pyrrolo[2,3-b]pyrazine hydrobromide], the melting point was 244 °C (dec.). Further, the IC50 against CDK1/cyclin B came out at 25000 nM. Further, the IC50 at GSK-3α/β (15 μM ATP, Table 1) worked out at 1800 nM.
The molecule `COc1cccc(-c2cc3nccnc3[nH]2)c1` [12 (RP10), 6-(3-Methoxyphenyl)[5H]pyrrolo[2,3-b]pyrazine] had a melting point of 195.7 °C. Also, the midpoint of inhibition against CDK1/cyclin B, the IC50, lay at 13000 nM. Further, the IC50 on GSK-3α/β (15 μM ATP, Table 1) worked out at 3200 nM.
With `Oc1ccc(-c2[nH]c3nccnc3c2CC2CC2)cc1` [43 (RP112), 6-(4-Hydroxyphenyl)-7-methylcyclopropyl[5H]pyrrolo[2,3-b]pyrazine hydrobromide], the IC50 on CDK1/cyclin B was 50000 nM; against CDK5/p25, more than 100000 nM; at GSK-3α/β (15 μM ATP, Table 1), 3000 nM.
In turn, `COc1ccc(-c2[nH]c3nccnc3c2C(C)C)cc1` [36 (RP102), 7-Isopropyl-6-(4-methoxyphenyl)[5H]pyrrolo[2,3-b]pyrazine] showed a melting point of 204.8 °C. Besides, the IC50 at GSK-3α/β (15 μM ATP, Table 1) worked out at 500 nM.
Regarding `Br.Cc1c(-c2ccc(O)cc2)[nH]c2nccnc12` [28 (RP96), 6-(4-Hydroxyphenyl)-7-methyl[5H]pyrrolo[2,3-b]pyrazine hydrobromide], the melting point is 262 °C (dec.). At CDK1/cyclin B, this molecule showed an IC50 of 250 nM. For the same molecule, the IC50 on GSK-3α/β (15 μM ATP, Table 1) was found to be 520 nM.
Consider `COc1cc(OC)cc(-c2cc3nccnc3[nH]2)c1` [16 (RP21), 6-(3,5-Dimethoxyphenyl)[5H]pyrrolo[2,3-b]pyrazine], for which the melting point was determined as 216.7 °C. On CDK5/p25, this molecule had a half-maximal inhibitory concentration (IC50) of more than 100000 nM. On GSK-3α/β (15 μM ATP, Table 1), the IC50 came to 60000 nM.
`Clc1ccc(-c2[nH]c3nccnc3c2Cc2ccccc2)cc1` [45 (RP91), 7-Benzyl-6-(4-chlorophenyl)[5H]pyrrolo[2,3-b]pyrazine] came in with a melting point of 266.3 °C. Further, on CDK5/p25, the IC50 is more than 100000 nM. In addition, on GSK-3α/β (15 μM ATP, Table 1), the IC50 stood at 6800 nM.
Take `Clc1ccc(-c2cc3nccnc3[nH]2)cc1` [19 (RP14), 6-(4-Chlorophenyl)[5H]pyrrolo[2,3-b]pyrazine]: the melting point is 250 °C (dec.). This molecule also gave an IC50 against CDK1/cyclin B of 1800 nM.
Turning to `Cc1c(-c2ccc(Cl)cc2)[nH]c2nccnc12` [30 (RP80), 6-(4-Chlorophenyl)-7-methyl[5H]pyrrolo[2,3-b]pyrazine], the melting point was 260 °C (dec.). At GSK-3α/β (15 μM ATP, Table 1), the IC50 was 1700 nM.
As to `Brc1ccc(-c2cc3nccnc3[nH]2)cc1` [21 (RP77), 6-(4-Bromophenyl) [5H]pyrrolo[2,3-b]pyrazine], the melting point is 256 °C (dec.). The molecule also yielded a 50% inhibitory concentration (IC50) against CDK5/p25 of more than 100000 nM. Besides, the IC50 at GSK-3α/β (15 μM ATP, Table 1) turned out to be 6000 nM.
As for `Br.Oc1ccc(-c2cc3nccnc3[nH]2)cc1` [15 (RP26), 6-(4-Hydroxyphenyl) [5H]pyrrolo[2,3-b]pyrazine hydrobromide], the melting point is 255 °C (dec.). This molecule also returned an IC50 against CDK1/cyclin B of 1200 nM. At GSK-3α/β, the IC50 came to 1200 nM.
In turn, `c1ccc2c(-c3cc4nccnc4[nH]3)cccc2c1` [6 (RP17), 6-(1-Naphtyl) [5H]pyrrolo[2,3-b]pyrazine] had a melting point of 216.4 °C. For the same molecule, the IC50 against CDK1/cyclin B is more than 100000 nM. The IC50 on GSK-3α/β (15 μM ATP, Table 1) is 27000 nM.
For `CC(C)c1c(-c2ccc(Cl)cc2)[nH]c2nccnc12` [37 (RP90), 6-(4-Chlorophenyl)-7-isopropyl[5H]pyrrolo[2,3-b]pyrazine] the same measures were 208.6 °C, 850 nM and 750 nM.
In the case of `Cc1c(C2(c3ccc(Cl)cc3)CC2)[nH]c2nccnc12` [49 (RP130)], the IC50 at GSK-3α/β (15 μM ATP, Table 1) came out at 18000 nM.
Take `N#Cc1ccc(-c2cc3nccnc3[nH]2)cc1` [23 (RP20), 6-(4-Cyanophenyl) [5H]pyrrolo[2,3-b]pyrazine]: the melting point is 340 °C (dec.). On CDK1/cyclin B, the IC50 was 3000 nM. Further, the IC50 on GSK-3α/β (15 μM ATP, Table 1) came out at 4800 nM.
For `CCCc1c(-c2ccc(OC)cc2)[nH]c2nccnc12` [32 (RP127)] the same measures were 188.5 °C, 400 nM and 400 nM.
The like results for `C=CCc1c(-c2ccc(OC)cc2)[nH]c2nccnc12` [34 (RP110), 7-Allyl-6-(4-methoxyphenyl)[5H]pyrrolo[2,3-b]pyrazine] were, in that order, 193.8 °C, 1000 nM and 600 nM.
Turning to `COc1cc(-c2cc3nccnc3[nH]2)cc(OC)c1OC` [17 (RP16), 6-(3,4,5-Trimethoxyphenyl)[5H]pyrrolo[2,3-b]pyrazine], the melting point stood at 231.7 °C. Moreover, the IC50 against CDK5/p25 is more than 100000 nM. Besides, the IC50 on GSK-3α/β (15 μM ATP, Table 1) worked out at 85000 nM.
`Cc1ccc(-c2cc3nccnc3[nH]2)cc1` [24 (RP78), 6-(4-Methylphenyl)[5H]pyrrolo[2,3-b]pyrazine]: the melting point was 265.4 °C. At CDK1/cyclin B, the IC50 was 3000 nM. Moreover, the IC50 at GSK-3α/β (15 μM ATP, Table 1) was found to be 2600 nM.
Regarding `Cn1c(-c2ccccc2)cc2nccnc21` [48 (RP22)], the IC50 against CDK5/p25 is 7000 nM; at GSK-3α/β (15 μM ATP, Table 1), more than 100000 nM.
Consider `Clc1ccc(C2(c3cc4nccnc4[nH]3)CC2)cc1` [9 (RP124), 6-[1-(4-Chlorophenyl)-1-cyclopropyl][5H]pyrrolo[2,3-b]pyrazine], for which the melting point turned out to be 189.7 °C. At CDK1/cyclin B, this molecule gave an IC50 of 30000 nM. Moreover, at GSK-3α/β (15 μM ATP, Table 1), the concentration for half-maximal inhibition (IC50) is 1000 nM.
With `Cc1cnc2cc(-c3ccccc3)[nH]c2n1` [8 (RP18), 3-Methyl-6-phenyl[5H]pyrrolo[2,3-b]pyrazine], the melting point amounted to 261.8 °C. Moreover, at CDK1/cyclin B, the IC50 is 69000 nM. On GSK-3α/β (15 μM ATP, Table 1), the IC50 was more than 100000 nM.
For `COc1ccccc1-c1cc2nccnc2[nH]1` [10 (RP9), 6-(2-Methoxyphenyl)[5H]pyrrolo[2,3-b]pyrazine] the same measures were 156.9 °C, 20000 nM and 3300 nM.
For `Fc1ccc(-c2cc3nccnc3[nH]2)cc1` [18 (RP76), 6-(4-Fluorophenyl)[5H]pyrrolo[2,3-b]pyrazine] the same measures were 244 °C (dec.), 2300 nM and 1900 nM.
Regarding `CCCCc1c(-c2ccc(OC)cc2)[nH]c2nccnc12` [38 (RP106), 7-n-Butyl-6-(4-methoxyphenyl)[5H]pyrrolo[2,3-b]pyrazine], the IC50 on GSK-3α/β (15 μM ATP, Table 1) was determined as 920 nM.
Take `COc1ccc(-c2[nH]c3nccnc3c2C)cc1OC` [29 (RP123), 6-(3,4-Methoxyphenyl)-7-methyl[5H]pyrrolo[2,3-b]pyrazine]: the melting point came out at 230.2 °C. Moreover, on CDK1/cyclin B, the IC50 is 1100 nM. Besides, the IC50 at GSK-3α/β (15 μM ATP, Table 1) stood at 2000 nM.
For `COc1ccc(-c2[nH]c3nccnc3c2C)cc1` [27 (RP95), 6-(4-Methoxyphenyl)-7-methyl[5H]pyrrolo[2,3-b]pyrazine] the same measures were 221.6 °C, 300 nM and 460 nM.
For the molecule `Br.Oc1cccc(-c2cc3nccnc3[nH]2)c1` [13 (RP134), 6-(3-Hydroxyphenyl)[5H]pyrrolo[2,3-b]pyrazine hydrobromide], the melting point was 258 °C (dec.). Moreover, on CDK1/cyclin B, the IC50 worked out at 2500 nM.
As for `COc1ccc(-c2[nH]c3nccnc3c2CCCCl)cc1` [35 (RP126), 7-(3-Chloropropyl)-6-(4-methoxyphenyl)[5H]pyrrolo[2,3-b]pyrazine], the melting point was 178 °C (dec.). In addition, at GSK-3α/β (15 μM ATP, Table 1), the IC50 worked out at 2500 nM.
